In ChEMBL document CHEMBL4043081, “Do spiroindolines have the potential to replace vesamicol as lead compound for the development of radioligands targeting the vesicular acetylcholine transporter?” (Bioorg Med Chem, 2017):
The source made the active and inactive calls. The rule behind the calls is not given here.

Experiments:
[1] = molecular target: T1, Vesicular acetylcholine transporter (Rattus norvegicus, UniProt Q62666); assay: Displacement of [3H]vesamicol from rat VAChT expressed in rat PC12 cell membranes incubated for 120 mins by liquid scintillation counting
T1 sequence (Q62666 whole entry): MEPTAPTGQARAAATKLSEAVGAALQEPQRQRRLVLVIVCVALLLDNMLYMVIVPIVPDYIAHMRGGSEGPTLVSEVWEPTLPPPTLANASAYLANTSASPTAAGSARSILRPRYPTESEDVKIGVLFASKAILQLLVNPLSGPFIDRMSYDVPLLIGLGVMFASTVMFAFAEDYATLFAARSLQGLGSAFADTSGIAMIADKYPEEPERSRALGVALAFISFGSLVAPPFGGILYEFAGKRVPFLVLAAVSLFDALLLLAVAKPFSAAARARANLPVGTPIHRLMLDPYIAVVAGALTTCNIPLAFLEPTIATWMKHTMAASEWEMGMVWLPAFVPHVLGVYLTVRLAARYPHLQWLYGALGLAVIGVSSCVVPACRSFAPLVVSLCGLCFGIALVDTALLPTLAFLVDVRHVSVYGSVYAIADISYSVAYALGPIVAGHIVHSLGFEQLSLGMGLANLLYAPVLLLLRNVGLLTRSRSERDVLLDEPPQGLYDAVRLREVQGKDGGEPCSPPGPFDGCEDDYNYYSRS

[2] = molecular target: Sigma non-opioid intracellular receptor 1 (Rattus norvegicus, UniProt Q9R0C9); assay: Displacement of [3H]pentazocine from sigma1 receptor in Sprague-Dawley rat cortex membranes incubated for 120 mins by liquid scintillation counting; type: cell membranes
[3] = molecular target: T2, Sigma intracellular receptor 2 (Rattus norvegicus, UniProt Q5U3Y7); assay: Displacement of [3H]pentazocine from sigma2 receptor in Sprague-Dawley rat liver membranes incubated for 120 mins by liquid scintillation counting; type: cell membranes, Membrane
T2 sequence (Q5U3Y7 whole entry): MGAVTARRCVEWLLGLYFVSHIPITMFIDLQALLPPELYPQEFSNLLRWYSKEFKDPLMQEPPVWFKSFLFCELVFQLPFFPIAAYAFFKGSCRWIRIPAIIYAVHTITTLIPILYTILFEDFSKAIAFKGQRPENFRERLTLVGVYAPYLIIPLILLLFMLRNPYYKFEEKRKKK

[4] = molecular target: T3, Vesicular acetylcholine transporter (Rattus norvegicus) (UniProt Q62666); assay: Binding affinity to rat VAChT expressed in rat PC12 cell membranes assessed as induction of rightward shift of vesamicol binding curves at 100 and 100 nM incubated for 120 mins by liquid scintillation counting based [3H]vesamicol binding assay
T3 sequence (whole entry): T1 sequence (Q62666 whole entry)

Sigma non-opioid intracellular receptor 1, sequence (Q9R0C9 whole entry): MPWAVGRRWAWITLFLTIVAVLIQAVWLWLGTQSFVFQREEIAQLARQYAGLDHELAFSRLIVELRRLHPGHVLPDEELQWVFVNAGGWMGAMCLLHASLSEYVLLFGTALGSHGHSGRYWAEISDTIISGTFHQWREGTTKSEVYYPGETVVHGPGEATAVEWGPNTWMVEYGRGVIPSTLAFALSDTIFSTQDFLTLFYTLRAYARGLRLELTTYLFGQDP

SMILES	Ki [1] [µM]	Ki [2] [µM]	Ki [3] [µM]	Activity [4]
O=C(c1ccnc(Cl)c1)N1CC2(CCN(C/C=C/c3ccc(Cl)cc3)CC2)c2cc(F)ccc21	0.153	0.137	1.19	Active
O=C(c1ccnc(F)c1)N1CC2(CCN(C/C=C/c3ccc(Cl)cc3)CC2)c2cc(F)ccc21	0.11	0.0554	0.748	–
O=C(c1ccc(F)cc1)N1CC2(CCN(C/C=C/c3ccc(Cl)cc3)CC2)c2cc(F)ccc21	0.243	0.293	1.2	–
O=C(c1ccc(Br)nc1)N1CC2(CCN(C/C=C/c3ccc(Cl)cc3)CC2)c2cc(F)ccc21	0.0392	0.179	0.0601	–
O=C(OCCF)N1CC2(CCN(C/C=C/c3ccc(Cl)cc3)CC2)c2cc(F)ccc21	0.328	0.0441	1.52	–
O=C(c1ccc(F)nc1)N1CC2(CCN(C/C=C/c3ccc(Cl)cc3)CC2)c2cc(F)ccc21	0.376	0.282	> 10	–
